# Assay results taken from PubChem BioAssay (NCI).
# Values joined by “and” are separate entries in the source; they are usually repeats but may differ in a detail not shown here. Equal entries are not always repeated.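 In this assay, cells in 96-well plates receive the compound at five concentrations for 48 hours. Endpoints are linearly interpolated between the surrounding concentrations. Abbreviation: GI50, concentration required for 50% inhibition of growth. The concentration for full growth arrest is given as TGI.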
# Legend:
# Experiment in all cases: growth of human tumour cells (NCI), 48 h
# [1] = test system: M14 melanoma
# [2] = test system: SK-MEL-28 melanoma
# [3] = test system: TK-10 renal
# [4] = test system: U251 CNS
# [5] = test system: SF-539 CNS
# [6] = test system: ACHN renal
# [7] = test system: EKVX NSCLC
# [8] = test system: HCC-2998 colon
# [9] = test system: SN12C renal
# [10] = test system: HS 578T breast
Structure (SMILES),TGI [1] [µM],TGI [2],TGI [3] [µM],TGI [4],TGI [5],TGI [6] [µM],TGI [7],TGI [8],TGI [9],TGI [10] [µM],GI50 [4] [µM],GI50 [5] [µM],GI50 [7] [µM],GI50 [8] [µM],GI50 [9] [µM],GI50 [2] [µM],GI50 [6] [µM],GI50 [1] [µM],GI50 [3] [µM],GI50 [10] [µM]
N#Cc1c(-c2ccc([N+](=O)[O-])cc2)c2c([nH]c1=O)-c1ccccc1CCC2,> 100,> 100 µM,> 100,> 100 µM,> 100 µM,> 100,> 100 µM,71.1 µM,> 100 µM,> 100,–,–,–,–,–,–,–,–,–,–
O=C1OC(c2ccc(O)cc2)(c2ccc(O)cc2)c2ccc(Cl)c3cccc1c23 (tested in a mixture with another compound),19.8,21.1 µM,52.6,25.2 µM,20.8 µM,39.8,4.88 µM,–,27.7 µM,40.6,–,–,–,–,–,–,–,–,–,–
CC[C@@]1(O)CC(OC2CC(N3CCOCC3)C(O)C(C)O2)c2c(O)c3c(c(O)c2[C@H]1O)C(=O)c1cccc(O)c1C3=O (stereo partly specified),1.51,1.8 µM and 1.94 µM,1.7,1.73 µM and 0.348 µM,1.07 µM and 0.71 µM,0.0815,1.02 µM and 1.63 µM,0.904 µM and 0.916 µM,2.17 µM and 9.19 µM,1.61,0.0287,0.0233,0.241,0.13,0.0465,–,–,–,–,–
Cc1csc2nc(-c3cccc([N+](=O)[O-])c3)c(/C=N/N=C(N)N)n12,3.1,3.15 µM,3.17,3.4 µM,4.71 µM,3.63,2.96 µM,0.861 µM,3.11 µM,3.45,–,–,–,–,–,–,–,–,–,–
Cc1cc(C)c2c(=O)n(CC(O)CN(Cc3ccccc3)CC(O)Cn3sc4nc(C)cc(C)c4c3=O)sc2n1 (stereo unspecified),32.9,74.1 µM,31.5,30.6 µM,32 µM,30.1,44.5 µM,35.7 µM,32.7 µM,40.4,–,–,–,–,–,–,–,–,–,–
C[n+]1c2ccccc2c(N=[N+]=[N-])c2ccccc21,> 10,> 10 µM,> 10,> 10 µM,> 10 µM,> 10,> 10 µM,> 10 µM,> 10 µM,> 10,–,–,–,–,–,–,–,–,–,–
N#CC1(CCCI)CCCC1,50.4,57.3 µM,> 100,26.3 µM,45.1 µM,> 100,> 100 µM,> 100 µM,26.3 µM,–,–,–,–,–,–,–,–,–,–,–
O=C(/C=C/c1ccc([N+](=O)[O-])cc1)N1CCN(CCOC(c2ccc(F)cc2)c2ccc(F)cc2)CC1,> 100,> 100 µM,> 100,> 100 µM,> 100 µM,> 100,> 100 µM,> 100 µM,> 100 µM,> 100,–,–,–,–,–,–,–,–,–,–
Cc1[nH]c(C(=O)Nc2ccc(C(=O)NCCN)cc2OC(C)C)c(Cl)c1Cl,–,3.21 µM,–,–,3.14 µM,3.07,3.17 µM,3.48 µM,3.41 µM,–,–,1.68,1.62,1.82,1.82,1.76,1.67,–,–,–
c1ccc(CSC(SCc2ccccc2)c2cccc3ccccc23)cc1,> 10,> 10 µM,> 10,> 10 µM,> 10 µM,> 10,> 10 µM,> 10 µM,> 10 µM,> 10,–,–,–,–,–,–,–,–,–,–
COc1ccccc1C#C/C=C\C#Cc1ccccc1C#N,46.5,> 100 µM,> 100,> 100 µM,82.7 µM,> 100,58.7 µM,47.4 µM,> 100 µM,65.4,–,–,–,–,–,–,–,–,–,–
CC(C)CCN(CCC(C)C)CC(=O)Nc1ccc(S(=O)(=O)c2ccc(NC(=O)CN(CCC(C)C)CCC(C)C)cc2)cc1,4.01,9.98 µM,25.5,–,3.07 µM,4.68,18.8 µM,9.71 µM,25.2 µM,70.3,–,1.57,3.27,3.2,3.1,2.64,1.94,1.58,12.2,5.37
Nc1ccc(Oc2ccc(C34CC5CC(C3)CC(c3ccc(Oc6ccc(N)cc6C(F)(F)F)cc3)(C5)C4)cc2)c(C(F)(F)F)c1,33.4,> 100 µM,31.1,27.6 µM,–,> 100,30.9 µM,–,> 100 µM,42.6,–,–,–,–,–,–,–,–,–,–
